Data as given in patent US20250197405A1, “HETEROAROMATIC COMPOUNDS AS PKMYT1 INHIBITORS AND USE THEREOF” (INSILICO MEDICINE IP LIMITED, priority 2022, published 2025).
pIC50: −log10 of the molar value.

biological target: PKMYT1 (Homo sapiens (Human), UniProt Q99640); assay: PKMYT1 HTRF assay; type: binding; conditions: Tracer 178, GST-Tb, compound 10 μM to 0.5 nM
Protocol: Compound serial dilution was performed by Echo, and the final concentrations varied from 10 μM to 0.5 nM. 5 μL/well of Enzyme solution was added to the assay plate containing the compound. The plate was centrifuged at 1000 rpm for 1 min, and incubated at 25° C. for 15 min. […] Next, 5 μL of GST-Tb was added into the assay plate, the plate was centrifuged at 1000 rpm for 1 min, and incubated at 25° C. for 15 min. The assay plate was read on Envision.

PKMYT1, sequence (Q99640 whole entry): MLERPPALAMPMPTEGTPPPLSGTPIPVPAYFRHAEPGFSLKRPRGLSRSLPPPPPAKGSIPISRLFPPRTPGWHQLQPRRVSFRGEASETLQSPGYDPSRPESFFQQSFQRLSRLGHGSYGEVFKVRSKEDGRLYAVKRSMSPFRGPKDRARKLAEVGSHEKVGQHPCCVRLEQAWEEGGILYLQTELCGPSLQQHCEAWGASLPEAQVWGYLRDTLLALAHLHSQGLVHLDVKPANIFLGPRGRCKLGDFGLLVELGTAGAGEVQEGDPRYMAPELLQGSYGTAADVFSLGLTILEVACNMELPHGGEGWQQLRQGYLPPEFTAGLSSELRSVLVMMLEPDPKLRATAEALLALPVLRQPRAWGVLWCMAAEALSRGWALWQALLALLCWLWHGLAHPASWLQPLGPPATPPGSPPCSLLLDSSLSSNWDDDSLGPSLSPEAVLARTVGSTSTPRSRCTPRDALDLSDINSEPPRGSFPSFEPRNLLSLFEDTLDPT

| Structure (SMILES) | pIC50 |
| --- | --- |
| COc1nc(C)nc2c1c(C(N)=O)c(N)n2-c1c(C)ccc(O)c1C (atropisomer, axis not shown) [Compound 7] | 8.82 |
| Cc1nc(N2CCC2)c2c(C(N)=O)c(N)n(-c3c(C)ccc(O)c3C)c2n1 (atropisomer, axis not shown) [Compound 8] | 7.89 |
| Cc1nc(Oc2cnn(C)c2)c2c(C(N)=O)c(N)n(-c3c(C)ccc(O)c3C)c2n1 (atropisomer, axis not shown) [Compound 9] | 8.55 |
| Cc1ccc(O)c(C)c1-n1c(N)c(C(N)=O)c2cnc(C(F)(F)F)nc21 [Compound 2] | 8.05 |
| Cc1ccc(O)c(C)c1-n1c(N)c(C(N)=O)c2c(=O)n(C)c(C)cc21 [Compound 3, 2-amino-1-(3-hydroxy-2,6-dimethylphenyl)-5,6-dimethyl-4-oxopyrrolo[3,2-c]pyridine-3-carboxamide] | 7.92 |
| Cc1ncc2c(C(N)=O)c(N)n(-c3c(C)ccc(O)c3Cl)c2n1 [Compound 4, 6-amino-7-(2-chloro-3-hydroxy-6-methylphenyl)-2-methylpyrrolo[2,3-d] pyrimidine-5-carboxamide] | 8.39 |
| Cc1nc(OC(F)F)c2c(C(N)=O)c(N)n(-c3c(C)ccc(O)c3C)c2n1 [Compound 10] | 8.47 |
| Cc1nc(OCF)c2c(C(N)=O)c(N)n(-c3c(C)ccc(O)c3C)c2n1 [Compound 11] | 8.64 |
| Cc1ccc(O)c(C)c1-n1c(N)c(C(N)=O)c2c(=O)n(CF)c(C)nc21 [Compound 12-P2] | 8.82 |
